Holding throughout (assay): CellTiter-GLO (CTG) assay, combinatorial matrix
Holding throughout (assay type): cell-based

Assay [1] has as its system A2780. As to conditions: for combination of IMT and PARPi compared to treatment with just the PARPi alone: A2780, CTG matrix, 30 μM to 10 nM IMT (3S)-1-[(2R)-2-[4-(2-chloro-4-fluoro-phenyl)-2-oxo-chromen-7-yl]oxypropanoyl]piperidine-3-carboxylic acid + 30 μM to 40 nM of the labelled PARPi. How it is done: (§1) To determine the in vitro cellular viability, cellular ATP concentrations were measured using a luminescence-based homogenous assay format, as described here. […] Optimal cell density for each cell line was determined to guarantee linearity. For viability assays with compounds, cells were then seeded at a density of 200 to 1000 per well in 25 μl in 384-well plates (Greiner Bio-One, Frickenhausen, Germany). After overnight incubation at 37° C./5% CO2, 25 nl or 75 nl compounds were added to each sample well by using BIOMEK FXP Laboratory Automation Workstation (Beckman Coulter, USA). Wells with cells and 0.1% or 0.3% DMSO in culture medium were used as positive controls, wells with cells and 10 μM staurosporine (Selleck Chemicals, Huston, USA) in culture medium were used as negative controls. Upon incubation with compounds for 72 h at 37° C./5% CO2 25 μl Cell Titer Glo reagent (Promega, Madison, USA, European Pat. No. 1131441, U.S. Pat. Nos. 7,083,911, 7,452,663 and 7,732,128) 1:2 diluted with cell culture medium) was added to each well to determine cell viability. 384well-plates were placed for 2 min on an orbital microplate shaker and incubated for further 10 min at room temperature resulting in a stabilization of light signal. Luminescence was measured by Envision Plate Reader (Perkin Elmer, USA).
(§2) All in vitro cell culture experiments were carried out under near physiological glucose concentrations (5 mM) in at least two independent replicates.

For assay [2], the system named is HEC59. As to conditions: HEC59, 72 hours, IMT at the μM of c0, untreated control =100%, read-out: Measured residual activity (cellular ATP content). How it is done: as §1, §2
(§3) To establish the method described, N,N-dimethyl-2-[4-(o-tolyl)-2-oxo-chromen-7-yl]oxy-propanamide, (3S)-1-[2-[4-(2-chloro-4-fluoro-phenyl)-2-oxo-chromen-7-yl]oxypropanoyl]piperidine-3-carboxylic acid, (3S)-1-[(2R)-2-[4-(2-chloro-4-fluoro-phenyl)-2-oxo-chromen-7-yl]oxypropanoyl]piperidine-3-carboxylic acid and BAY-876 were first examined with regard to their effect on the cell growth of twelve different tumour cell lines and the IC50 values were determined. This initial study was followed by validation experiments in a matrix format and in the CTG assay, as described under Example 1), in two tumour cell lines from uterine and ovarian carcinoma (HEC59 and A2780), as well as in primary human blood cells (PBMC) (Table 7).
(§4) Combinations of one concentration of IMT (μM; y-axis) and 30 μM-33 nM BAY-876 (x-axis) were incubated for 72 hours with HEC59, hPBMCs or A2780 and then the cellular ATP-content was determined using the CellTiter-GLO assay format. A: Measured residual activity (%) based on an untreated control group (=100%). B: The combinatorial indices are provided, based on the reference groups treated with the corresponding concentration of only one inhibitor class, according to Berenbaum and Cou & Talalay. <1=synergism, 1-2=additivity, 2>=antagonism.

In assay [3] the test system is primary human blood cells (PBMC). As to conditions: Homo sapiens, PBMC, hPBMCs, 72 hours, IMT at the μM of c0, untreated control =100%, read-out: Measured residual activity (cellular ATP content). As for the experimental part: as §1, §2, §3, §4

Each structure is given as a SMILES string. Like-named read-outs stand apart in the source and are kept apart here.

`Cc1c(NC(=O)c2cc(C(N)=O)nc3cc(F)ccc23)c(C(F)(F)F)nn1Cc1ccc(C#N)cc1` [BAY-876]: the activity at 0.04 µM in assay [1] (Homo sapiens, A2780, 72 hours, BAY-876 0.04 μM, IMT at the μM of c0, untreated control =100%, read-out: Measured residual activity (cellular ATP content)) worked out at 88%; in assay [3] (BAY-876 0.04 μM), 104%. In addition, the activity at 0.123 µM in assay [1] (Homo sapiens, A2780, 72 hours, BAY-876 0.123 μM, IMT at the μM of c0, untreated control =100%, read-out: Measured residual activity (cellular ATP content)) was determined as 78%; in assay [2] (BAY-876 0.123 μM), 59%. Also, the activity at […] amounted to 90% in assay [1] (Homo sapiens, A2780, 72 hours, BAY-876 0.37 μM, IMT at the μM of c0, untreated control =100%, read-out: Measured residual activity (cellular ATP content)); 58% in assay [2] (BAY-876 0.370 μM); 18% in assay [2] (BAY-876 3.3 μM); 109% in assay [3] (BAY-876 0.12 μM); 90% in assay [3] (BAY-876 0.37 μM). For the same compound, the activity at 3.33 µM was 78% in assay [1] (Homo sapiens, A2780, 72 hours, BAY-876 3.33 μM, IMT at the μM of c0, untreated control =100%, read-out: Measured residual activity (cellular ATP content)) and 98% in assay [3] (BAY-876 3.33 μM). For the same compound, the activity at 10 µM in assay [1] (Homo sapiens, A2780, 72 hours, BAY-876 10 μM, IMT at the μM of c0, untreated control =100%, read-out: Measured residual activity (cellular ATP content)) came out at 51%; in assay [2] (BAY-876 10 μM), 11%; in assay [3] (BAY-876 10 μM), 87%. For the same compound, the activity at 30 µM in assay [1] (Homo sapiens, A2780, 72 hours, BAY-876 30 μM, IMT at the μM of c0, untreated control =100%, read-out: Measured residual activity (cellular ATP content)) stood at 10%; in assay [2] (BAY-876 30 μM) it was 8%; in assay [3] (BAY-876 30 μM), 101%. Also, the activity at 0.041 µM in assay [2] (BAY-876 0.041 μM) was found to be 74%. Moreover, the activity at 1.111 µM in assay [2] (BAY-876 1.111 μM) amounted to 32%.
As for `CNCc1ccc(-c2[nH]c3cc(F)cc4c3c2CCNC4=O)cc1` [Rucaparib], the “combination of IMT and PARPi compared to treatment with just the PARPi alone” value in assay [1] is reported as “advantage of the combination”. Further, in assay [1] (Homo sapiens, A2780, 72 hours, Rucaparib 0.04 μM, IMT (3S)-1-[(2R)-2-[4-(2-chloro-4-fluoro-phenyl)-2-oxo-chromen-7-yl]oxypropanoyl]piperidine-3-carboxylic acid at the μM of c0, untreated control =100%, read-out: Measured residual activity (cellular ATP content)), the activity at 0.04 µM was found to be 90%. Moreover, the activity at 0.1 µM in assay [1] (Homo sapiens, A2780, 72 hours, Rucaparib 0.1 μM, IMT (3S)-1-[(2R)-2-[4-(2-chloro-4-fluoro-phenyl)-2-oxo-chromen-7-yl]oxypropanoyl]piperidine-3-carboxylic acid at the μM of c0, untreated control =100%, read-out: Measured residual activity (cellular ATP content)) came to 70%. Also, the activity at 0.4 µM in assay [1] (Homo sapiens, A2780, 72 hours, Rucaparib 0.4 μM, IMT (3S)-1-[(2R)-2-[4-(2-chloro-4-fluoro-phenyl)-2-oxo-chromen-7-yl]oxypropanoyl]piperidine-3-carboxylic acid at the μM of c0, untreated control =100%, read-out: Measured residual activity (cellular ATP content)) was 42%. Moreover, in assay [1] (Homo sapiens, A2780, 72 hours, Rucaparib 1.1 μM, IMT (3S)-1-[(2R)-2-[4-(2-chloro-4-fluoro-phenyl)-2-oxo-chromen-7-yl]oxypropanoyl]piperidine-3-carboxylic acid at the μM of c0, untreated control =100%, read-out: Measured residual activity (cellular ATP content)), the activity at 1.1 µM was found to be 21%. Moreover, in assay [1] (Homo sapiens, A2780, 72 hours, Rucaparib 3.3 μM, IMT (3S)-1-[(2R)-2-[4-(2-chloro-4-fluoro-phenyl)-2-oxo-chromen-7-yl]oxypropanoyl]piperidine-3-carboxylic acid at the μM of c0, untreated control =100%, read-out: Measured residual activity (cellular ATP content)), the activity at […] amounted to 6%. Besides, in assay [1] (Homo sapiens, A2780, 72 hours, Rucaparib 10 μM, IMT (3S)-1-[(2R)-2-[4-(2-chloro-4-fluoro-phenyl)-2-oxo-chromen-7-yl]oxypropanoyl]piperidine-3-carboxylic acid at the μM of c0, untreated control =100%, read-out: Measured residual activity (cellular ATP content)), the activity at 10 µM turned out to be 0%. In addition, in assay [1] (Homo sapiens, A2780, 72 hours, Rucaparib 30 μM, IMT (3S)-1-[(2R)-2-[4-(2-chloro-4-fluoro-phenyl)-2-oxo-chromen-7-yl]oxypropanoyl]piperidine-3-carboxylic acid at the μM of c0, untreated control =100%, read-out: Measured residual activity (cellular ATP content)), the activity at 30 µM was 0%.
Turning to `C[C@]1(c2nc3c(C(N)=O)cccc3[nH]2)CCCN1` [Veliparib], the “combination of IMT and PARPi compared to treatment with just the PARPi alone” value in assay [1] is “advantage of the combination”. Besides, the activity at 0.04 µM in assay [1] (Homo sapiens, A2780, 72 hours, Veliparib 0.04 μM, IMT (3S)-1-[(2R)-2-[4-(2-chloro-4-fluoro-phenyl)-2-oxo-chromen-7-yl]oxypropanoyl]piperidine-3-carboxylic acid at the μM of c0, untreated control =100%, read-out: Measured residual activity (cellular ATP content)) came to 99%. Further, the activity at 0.1 µM in assay [1] (Homo sapiens, A2780, 72 hours, Veliparib 0.1 μM, IMT (3S)-1-[(2R)-2-[4-(2-chloro-4-fluoro-phenyl)-2-oxo-chromen-7-yl]oxypropanoyl]piperidine-3-carboxylic acid at the μM of c0, untreated control =100%, read-out: Measured residual activity (cellular ATP content)) stood at 99%. Besides, the activity at 0.4 µM in assay [1] (Homo sapiens, A2780, 72 hours, Veliparib 0.4 μM, IMT (3S)-1-[(2R)-2-[4-(2-chloro-4-fluoro-phenyl)-2-oxo-chromen-7-yl]oxypropanoyl]piperidine-3-carboxylic acid at the μM of c0, untreated control =100%, read-out: Measured residual activity (cellular ATP content)) turned out to be 97%. Besides, in assay [1] (Homo sapiens, A2780, 72 hours, Veliparib 1.1 μM, IMT (3S)-1-[(2R)-2-[4-(2-chloro-4-fluoro-phenyl)-2-oxo-chromen-7-yl]oxypropanoyl]piperidine-3-carboxylic acid at the μM of c0, untreated control =100%, read-out: Measured residual activity (cellular ATP content)), the activity at 1.1 µM turned out to be 89%. Further, the activity at […] in assay [1] (Homo sapiens, A2780, 72 hours, Veliparib 3.3 μM, IMT (3S)-1-[(2R)-2-[4-(2-chloro-4-fluoro-phenyl)-2-oxo-chromen-7-yl]oxypropanoyl]piperidine-3-carboxylic acid at the μM of c0, untreated control =100%, read-out: Measured residual activity (cellular ATP content)) stood at 85%. Further, the activity at 10 µM in assay [1] (Homo sapiens, A2780, 72 hours, Veliparib 10 μM, IMT (3S)-1-[(2R)-2-[4-(2-chloro-4-fluoro-phenyl)-2-oxo-chromen-7-yl]oxypropanoyl]piperidine-3-carboxylic acid at the μM of c0, untreated control =100%, read-out: Measured residual activity (cellular ATP content)) is 43%. Also, the activity at 30 µM in assay [1] (Homo sapiens, A2780, 72 hours, Veliparib 30 μM, IMT (3S)-1-[(2R)-2-[4-(2-chloro-4-fluoro-phenyl)-2-oxo-chromen-7-yl]oxypropanoyl]piperidine-3-carboxylic acid at the μM of c0, untreated control =100%, read-out: Measured residual activity (cellular ATP content)) is 6%.

Values taken from patent US20240252454A1, “COMPOSITION COMPRISING AN INHIBITOR OF MITOCHONDRIAL TRANSCRIPTION” (LEAD DISCOVERY CENTER GMBH, priority 2021, published 2024).
